The text below walks through data of patent US8530504B2, “Pyrazolothiazole compound” (Eisai R&D Management Co., Ltd., priority 2009, dated 2013).

One assay deals with human CRFR1 (Homo sapiens (Human), UniProt P34998). Kind of assay: CRFR1 Binding Test.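 Further: nonspecific binding was determined with a 4,000-fold excess of unlabelled sauvagine and subtracted from every reading.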 To be noted: competition with 100 pM 125I-CRF, SPA method, membrane fraction of human CRFR1-expressing HEK293 cells; read-out: CRF1 receptor binding capacity IC50.
Sequence of human CRFR1 (P34998 24-415): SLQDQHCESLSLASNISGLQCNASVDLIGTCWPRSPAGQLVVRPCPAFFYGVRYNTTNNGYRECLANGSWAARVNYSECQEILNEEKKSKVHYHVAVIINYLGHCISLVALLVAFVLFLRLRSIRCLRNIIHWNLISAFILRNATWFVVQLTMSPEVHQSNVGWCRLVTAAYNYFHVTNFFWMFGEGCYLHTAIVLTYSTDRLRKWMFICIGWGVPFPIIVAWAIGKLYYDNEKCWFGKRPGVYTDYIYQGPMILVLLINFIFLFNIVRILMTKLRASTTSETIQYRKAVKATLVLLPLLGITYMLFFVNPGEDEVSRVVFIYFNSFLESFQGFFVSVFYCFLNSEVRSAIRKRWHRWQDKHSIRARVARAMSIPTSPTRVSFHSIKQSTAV
The next assay relates to mice. Kind of assay: Light/dark box test in mice (anxiolytic effect). Type of assay: in vivo. To be noted: for Effective Dose: dose significantly prolonging time spent in the light box vs vehicle, oral administration one hour prior to test, male Balb/c mice; for anxiolytic effect in the light/dark box test in mice: statistically significant at 30 mg/kg (oral administration). Here is the method: <Evaluation of Anxiolytic Effect in Light/Dark Box Test in Mice>
The light/dark box test in mice was carried out according to a modified method of Belzung C., Misslin R., and Vogel E. et al. (Reference; Behavioural effects of the benzodiazepine receptor partial agonist RO16-6028 in mice, Psychopharmacology, 97, 388-391, 1989). The test apparatus used in this test was a light/dark box including a covered black acrylic box (dark box; 15×10×20 cm), a white acrylic box with top opened (light box; 15×20×20 cm) and a black acrylic tunnel (10×7×4.5 cm) that connects the dark box and the light box and enables a mouse to freely move back and forth between the dark box and light box. In this test apparatus, however, a transparent acrylic plate was used for the front side (20×20 cm) and back side (20×20 cm) of the light box to allow observation of the behavior. After setting illumination so that the light intensity of the floor surface of the light box became 150 Lux, 5-week-old male Balb/c mice (purchased from Nihon Charles River) were introduced into the dark box and the test was started. In the test, the tested compound was suspended in 5% dimethyl sulfoxide, 5% Cremopor EL and 90% physiological saline and orally administered to the test animals one hour prior to the start of the test.
The time spent in the light box was measured as an index of the anxiolytic effect, with “spend in the light box” defined as the state in which all limbs of the mice were on the floor of the light box. […] The statistical significance between the vehicle-treated group and the test compound-treated groups was analyzed by one-way layout analysis of variance followed by Dunnett multiple comparison when multiple doses were set for the same test, and by the Mann-Whitney U test when only one dose was set.

The conditions of assay [1]: in vivo; cited from earlier work.
For assay [2] the following is noted: Journal of Psychiatric Research, 34:171-181 (2000); cited from earlier work.
The next assay has as its system rats. The conditions noted are these: cited from earlier work.
A further assay deals with high-anxiety rats. The conditions noted are these: particularly in high-anxiety rats; cited from earlier work.
The subject of a further assay is Tg2576 transgenic mice. The conditions noted are these: cited from earlier work.
For assay [3] the following is noted: convulsion and epilepsy induced by CRF administration; cited from earlier work.
For assay [4] the following is noted: in vivo; cited from earlier work. This is another data set of the same source.
The conditions of assay [5]: in vivo; cited from earlier work. The source holds these as a separate data set.
In another assay the test system is IBS patients. To be noted: cited from earlier work.
The test system of the next assay is ethanol withdrawal rats. To be noted: cited from earlier work.
The conditions of assay [6]: in vivo; cited from earlier work. The source holds these as a separate data set.
The conditions of assay [7]: in vivo; cited from earlier work. This is another data set of the same source.

By pIC50 is commonly meant −log10 of the IC50, conventionally taken in molar units.

pIC50: −log10 of the molar value.

Turning to `COCc1cc(OC)c(-c2csc3c(N(CC4CC4)CC4C5COCC54)c(OC)nn23)c(OC)c1` (single isomer, unassigned; diastereomer 1) [Example 94, N-(Cyclopropylmethyl)-3-[2,6-dimethoxy-4-(methoxymethyl)phenyl]-6-methoxy-N-[3-oxabicyclo[3.1.0]hex-6-ylmethyl]-pyrazolo[5,1-b][1,3]thiazole-7-amine (diastereomer 1)], the pIC50 at human CRFR1 was 7.35. In the assay with mice, the “Effective Dose” value was determined as 30 mg/kg and the “anxiolytic effect in the light/dark box test in mice” value is listed as “excellent anxiolytic effects”.

Consider `CCN(c1nc(C)cc(N2CC=C(c3cccc(F)c3)CC2)n1)c1ccc(C(C)C)cc1SC` [CRA1000], for which, in [1], the “stress-related reduction in food intake” value is on record as “inhibit stress-related reduction in food intake”.

Consider `COCc1cc(OC)c(-c2csc3c(N(CC4CCOCC4)CC4CC4)c(C)nn23)c(OC)c1` [Example 4, N-(Cyclopropylmethyl)-3-[2,6-dimethoxy-4-(methoxymethyl)phenyl]-6-methyl-N-(tetrahydro-2H-pyran-4-ylmethyl)pyrazolo[5,1-b][1,3]thiazole-7-amine], for which, in the assay on mice, the “Effective Dose” value is 30 mg/kg and the “anxiolytic effect in the light/dark box test in mice” value is on record as “excellent anxiolytic effects”.

Regarding `COCc1cc(OC)c(-c2csc3c(N(CC4CC4)CC4COCOC4)c(OC)nn23)c(OC)c1` [Example 11, Cyclopropylmethyl-3[3-(2,6-dimethoxy-4-methoxymethyl-phenyl)-6-methoxy-pyrazolo[5,1-b][1,3]thiazol-7-yl]-[1,3]dioxan-5-ylmethyl-amine], at human CRFR1, the negative-log IC50 (pIC50) is 7.04. For the same molecule, in the assay on mice, the “Effective Dose” value came out at 30 mg/kg and the “anxiolytic effect in the light/dark box test in mice” value was “excellent anxiolytic effects”.

For `CCCN(c1c(OC)nn2c(-c3c(OC)cc(COC)cc3OC)csc12)C1CCOC1` (stereo not drawn) [Example 14, 3-[2,6-Dimethoxy-4-methoxymethylphenyl]-6-methoxy-N-propyl-N-(tetrahydrofuran-3-yl)pyrazolo[5,1-b][1,3]thiazole-7-amine], the negative-log IC50 (pIC50) on human CRFR1 was 7.29. For the same molecule, in the assay on mice, the “Effective Dose” value is reported as 30 mg/kg and the “anxiolytic effect in the light/dark box test in mice” value is reported as “excellent anxiolytic effects”.

`CCOCc1cc(OC)c(-c2csc3c(N(CCCOC)CC4CC4)c(OC)nn23)c(OC)c1` [Example 42, N-(Cyclopropylmethyl)-3-[4-(ethoxymethyl)-2,6-dimethoxyphenyl]-6-methoxy-N-(3-methoxypropyl)pyrazolo[5,1-b][1,3]thiazole-7-amine]: the pIC50 at human CRFR1 is 7.46. For the same molecule, in the assay on mice, the “Effective Dose” value worked out at 30 mg/kg and the “anxiolytic effect in the light/dark box test in mice” value is given as “excellent anxiolytic effects”.

On to `CCCN(c1c(OC)nn2c(-c3c(OC)cc(COCC)cc3OC)csc12)C1CCOC1` (stereo not drawn) [Example 46, 3-[4-(Ethoxymethyl)-2,6-dimethoxyphenyl]-6-methoxy-N-propyl-N-(tetrahydrofuran-3-yl)pyrazolo[5,1-b][1,3]thiazole-7-amine], for which the pIC50 on human CRFR1 was 7.59. For the same molecule, in the assay on mice, the “Effective Dose” value was 30 mg/kg and the “anxiolytic effect in the light/dark box test in mice” value was “excellent anxiolytic effects”.

For the molecule `CCCCN(c1c(OCC)nn2c(-c3c(OC)cc(COC)cc3OC)csc12)C1CCOCC1` [Example 82, N-Butyl-3-[2,6-dimethoxy-4-(methoxymethyl)phenyl]-6-ethoxy-N-(tetrahydro-2H-pyran-4-yl)-pyrazolo[5,1-b][1,3]thiazole-7-amine], the pIC50 on human CRFR1 was 7.20.

In the case of `CCOc1nn2c(-c3c(OC)cc(COC)cc3OC)csc2c1N(CC1CCC1)C1CCOCC1` [Example 83, N-(Cyclobutylmethyl)-3-[2,6-dimethoxy-4-(methoxymethyl)phenyl]-6-ethoxy-N-(tetrahydro-2H-pyran-4-yl)-pyrazolo[5,1-b][1,3]thiazole-7-amine], on human CRFR1, the negative logarithm of the IC50 (pIC50) was 7.33.

Regarding `CCCN(CC1CCOC1)c1c(OCC)nn2c(-c3c(OC)cc(COC)cc3OC)csc12` (stereo not drawn) [Example 84, 3-[2,6-Dimethoxy-4-(methoxymethyl)phenyl]-6-ethoxy-N-propyl-N-(tetrahydrofuran-3-ylmethyl)pyrazolo[5,1-b][1,3]thiazole-7-amine], on human CRFR1, the pIC50 is 7.29.

Take `CCCN(c1ccccn1)c1c(OC)nn2c(-c3c(OC)cc(COC)cc3OC)csc12` [Example 86, 3-[2,6-Dimethoxy-4-(methoxymethyl)phenyl]-6-methoxy-N-propyl-N-pyridin-2-ylpyrazolo[5,1-b][1,3]thiazole-7-amine]: the pIC50 on human CRFR1 was 7.48.

Regarding `CCCN(c1cccnc1)c1c(OC)nn2c(-c3c(OC)cc(COC)cc3OC)csc12` [Example 87, 3-[2,6-Dimethoxy-4-(methoxymethyl)phenyl]-6-methoxy-N-propyl-N-pyridin-3-ylpyrazolo[5,1-b][1,3]thiazole-7-amine], on human CRFR1, the pIC50 was 7.44.

Turning to `COCc1cc(OC)c(-c2csc3c(N(CCCF)c4cccnc4)c(OC)nn23)c(OC)c1` [Example 88, 3-[2,6-Dimethoxy-4-(methoxymethyl)phenyl]-N-(3-fluoropropyl)-6-methoxy-N-pyridin-3-ylpyrazolo[5,1-b][1,3]thiazole-7-amine], the pIC50 on human CRFR1 is 7.28.

`COCc1cc(OC)c(-c2csc3c(N(CC4CC4)c4cccnc4)c(OC)nn23)c(OC)c1` [Example 89, N-(Cyclopropylmethyl)-3-[2,6-dimethoxy-4-(methoxymethyl)phenyl]-6-methoxy-N-pyridin-3-ylpyrazolo[5,1-b][1,3]thiazole-7-amine]: at human CRFR1, the pIC50 is 7.28.

Turning to `CCCCN(c1c(OC)nn2c(-c3c(OC)cc(C=O)cc3OC)csc12)C1CCOCC1` [Example 103], the pIC50 on human CRFR1 was 7.00.

As for `CCCCN(c1c(SC)nn2c(-c3c(OC)cc(COC)cc3OC)csc12)C1CCOCC1` [Example 106, N-Butyl-3-[2,6-dimethoxy-4-(methoxymethyl)phenyl]-6-(methylthio)-N-(tetrahydro-2H-pyran-4-yl)pyrazolo[5,1-b][1,3]thiazole-7-amine], on human CRFR1, the pIC50 is 7.08.

On to `CCCN(CCC)c1cc(C)nc2c(-c3cnc(N(C)C)cc3C)c(C)nn12` [Example R121919], for which, in [2], the “ameliorating depression, depressive symptoms, anxiety” value is “effective for ameliorating depression, depressive symptoms, anxiety”. In addition, the anti-anxiety action entry in the assay on rats is on record as “exhibits an anti-anxiety action”. Besides, the stress-related sleep disorder entry in the assay with high-anxiety rats is given as “inhibits stress-related sleep disorder”.

Consider `CCCN(CC1CC1)c1nc(C)nc(Nc2c(Cl)cc(Cl)cc2Cl)c1Cl` [NBI27914], for which the “increased levels of Aβ and Aβ plaque deposition induced by stress” value in the assay with Tg2576 transgenic mice was “inhibits increased levels of Aβ and Aβ plaque deposition induced by stress”. For the same molecule, the limbic system seizure result in assay [3] is on record as “inhibits limbic system seizure”.

With `CCCCN(CC)c1nc(C)nc2c1c(C)c(C)n2-c1c(C)cc(C)cc1C` [antalarmin], the “stress-induced hippocampal tau phosphorylation” value in [4] is “inhibits stress-induced hippocampal tau phosphorylation”. Further, the “hypertension induced by intraventricular administration of CRF” value in [5] was “inhibits hypertension induced by intraventricular administration of CRF”.

Consider α-helical CRF (9-41), for which the “colon intestinal hyperkinesis, abdominal pain and anxiety” value in the assay with IBS patients was “inhibits colon intestinal hyperkinesis in IBS patients and reduces abdominal pain and anxiety”. Moreover, the anxiety behavior entry with ethanol withdrawal rats is “inhibits anxiety behavior”. In assay [1], the “stress-related reduction in food intake” value is “inhibit stress-related reduction in food intake”. Moreover, in assay [6], the “stress-related increase in intracerebral amyloid-β” value was “suppresses stress-related increase in intracerebral amyloid-β”. Moreover, in assay [7], the “ischemic and excitotoxic encephalopathy” value is “inhibits ischemic and excitotoxic encephalopathy”.
